The source of these data is ChEMBL document CHEMBL4138247, “Synthesis of new triterpenic monomers and dimers as potential antiproliferative agents and their molecular docking studies” (Eur J Med Chem, 2018).

A word on the IC50: it is the concentration that gives 50% inhibition. Read a high IC50 as weaker potency in that assay.

Holding throughout (format): functional, cell-based
One assay has as its system FaDu. The assay is described as follows: Antiproliferative activity against human FADU cells after 96 hrs by SRB assay.
A further assay deals with A2780. Nature of the assay: Antiproliferative activity against human A2780 cells after 96 hrs by SRB assay. As to conditions: A2780, 96 h. In general terms: The SRB assay estimates cell density from bound dye.
Another assay relates to HT-29. The assay is described as follows: Antiproliferative activity against human HT-29 cells after 96 hrs by SRB assay. As to conditions: HT-29, 96 h.
The subject of the next assay is A-375. The assay is described as follows: Antiproliferative activity against human A375 cells after 96 hrs by SRB assay. As to conditions: A-375, 96 h.

Turning to `C/C(=C\CC/C(C)=C/CC[C@@H]1[C@@]2(C)CCC(=O)C(C)(C)[C@@H]2CC[C@@]1(C)O)CC/C=C(\C)C(=O)OCCCOC(=O)[C@@]1(C)[C@H](O)CC[C@@]2(C)[C@H]1CC[C@]1(C)[C@@H]2C(=O)C=C2[C@@H]3[C@@H](C)[C@H](C)CC[C@]3(C)CC[C@]21C`, the IC50 in the assay on FaDu, in the assay with A2780, in the assay on HT-29 and in the assay with A-375 was above 30 µM throughout.

As to `C/C(=C\CC/C(C)=C/CC[C@@H]1[C@@]2(C)CCC(=O)C(C)(C)[C@@H]2CC[C@@]1(C)O)CC/C=C(\C)C(=O)OCCCCOC(=O)/C(C)=C/CC/C(C)=C/CC/C(C)=C/CC[C@@H]1[C@@]2(C)CC[C@H](O)C(C)(C)[C@@H]2CC[C@@]1(C)O`, the IC50 is 28.2 µM with FaDu, 16.1 µM in the assay with A2780, 8.2 µM in the assay with HT-29 and 10.6 µM in the assay with A-375.

Take `C/C(=C\CC/C(C)=C/CC[C@@H]1[C@@]2(C)CCC(=O)C(C)(C)[C@@H]2CC[C@@]1(C)O)CC/C=C(\C)C(=O)OCCCOC(=O)/C(C)=C/CC/C(C)=C/CC/C(C)=C/CC[C@@H]1[C@@]2(C)CCC(=O)C(C)(C)[C@@H]2CC[C@@]1(C)O`: the IC50 in the assay on FaDu is above 30 µM; with A2780, 16 µM; with HT-29, 5.4 µM; with A-375, 10.4 µM.

For the compound `C=C(C)[C@@H]1CC[C@]2(C)CC[C@]3(C)[C@H](CC[C@@H]4[C@@]5(C)CC[C@@H](O)[C@](C)(C(=O)OCCCBr)[C@@H]5CC[C@]43C)[C@@H]12`, the IC50 with FaDu turned out to be 27.1 µM; in the assay with A2780, 26.9 µM; in the assay on HT-29, 24.5 µM; with A-375, 16.7 µM.

As to `C=C(C)[C@@H]1CC[C@]2(C(=O)OCCCCOC(=O)/C(C)=C/CC/C(C)=C/CC/C(C)=C/CC[C@@H]3[C@@]4(C)CCC(=O)C(C)(C)[C@@H]4CC[C@@]3(C)O)CC[C@]3(C)[C@H](CC[C@@H]4[C@@]5(C)CC[C@H](O)C(C)(C)[C@@H]5CC[C@]43C)[C@@H]12`, the IC50 in the assay on FaDu, in the assay on A2780, with HT-29 and in the assay with A-375 was above 30 µM in each case.

Consider `C/C(=C\CC/C(C)=C/CC[C@@H]1[C@@]2(C)CCC(=O)C(C)(C)[C@@H]2CC[C@@]1(C)O)CC/C=C(\C)C(=O)OCCOC(=O)/C(C)=C/CC/C(C)=C/CC/C(C)=C/CC[C@@H]1[C@@]2(C)CC[C@@H](O)C(C)(C)[C@@H]2CC[C@@]1(C)O`, for which the IC50 is above 30 µM in the assay with FaDu, 20.7 µM in the assay on A2780, 10 µM in the assay with HT-29 and 15.5 µM with A-375.

With `C/C(=C\CC/C(C)=C/CC[C@@H]1[C@@]2(C)CCC(=O)C(C)(C)[C@@H]2CC[C@@]1(C)O)CC/C=C(\C)C(=O)OCCCBr`, the IC50 was above 30 µM with FaDu, 18.1 µM in the assay on A2780, 8.1 µM in the assay with HT-29 and 11.8 µM in the assay with A-375.

As for `C/C(=C\CC/C(C)=C/CC[C@@H]1[C@@]2(C)CCC(=O)C(C)(C)[C@@H]2CC[C@@]1(C)O)CC/C=C(\C)C(=O)OCCOC(=O)[C@@]1(C)[C@H](O)CC[C@@]2(C)[C@H]1CC[C@]1(C)[C@@H]2C(=O)C=C2[C@@H]3[C@@H](C)[C@H](C)CC[C@]3(C)CC[C@]21C`, the IC50 in the assay on FaDu, with A2780, with HT-29 and in the assay on A-375 was above 30 µM in each case.

With `C/C(=C\CC/C(C)=C/CC[C@@H]1[C@@]2(C)CCC(=O)C(C)(C)[C@@H]2CC[C@@]1(C)O)CC/C=C(\C)C(=O)OCCCCOC(=O)/C(C)=C/CC/C(C)=C/CC/C(C)=C/CC[C@@H]1[C@@]2(C)CCC(=O)C(C)(C)[C@@H]2CC[C@@]1(C)O`, the IC50 was above 30 µM with FaDu, 24.2 µM with A2780, 8.8 µM with HT-29 and 12.4 µM with A-375.

With `C/C(=C\CC/C(C)=C/CC[C@@H]1[C@@]2(C)CCC(=O)C(C)(C)[C@@H]2CC[C@@]1(C)O)CC/C=C(\C)C(=O)OCCCCOC(=O)[C@@]1(C)[C@H](O)CC[C@@]2(C)[C@H]1CC[C@]1(C)[C@@H]2C(=O)C=C2[C@@H]3[C@@H](C)[C@H](C)CC[C@]3(C)CC[C@]21C`, the IC50 in the assay on FaDu, in the assay with A2780, in the assay with HT-29 and in the assay with A-375 was above 30 µM throughout.

For `C/C(=C\CC/C(C)=C/CC[C@@H]1[C@@]2(C)CCC(=O)C(C)(C)[C@@H]2CC[C@@]1(C)O)CC/C=C(\C)C(=O)OCCCCBr`, the IC50 in the assay with FaDu is above 30 µM; with A2780, 21.6 µM; in the assay on HT-29 it was 14.6 µM; in the assay with A-375, 14.5 µM.

On to `C=C(C)[C@@H]1CC[C@]2(C)CC[C@]3(C)[C@H](CC[C@@H]4[C@@]5(C)CC[C@@H](O)[C@](C)(C(=O)OCCCCBr)[C@@H]5CC[C@]43C)[C@@H]12`, for which the IC50 is above 30 µM with FaDu, above 30 µM in the assay with A2780, above 30 µM with HT-29 and 18 µM in the assay with A-375.

Regarding `C/C(=C\CC/C(C)=C/CC[C@@H]1[C@@]2(C)CCC(=O)C(C)(C)[C@@H]2CC[C@@]1(C)O)CC/C=C(\C)C(=O)OCCCOC(=O)/C(C)=C/CC/C(C)=C/CC/C(C)=C/CC[C@@H]1[C@@]2(C)CC[C@@H](O)C(C)(C)[C@@H]2CC[C@@]1(C)O`, the IC50 was determined as 25.1 µM in the assay with FaDu, 14.8 µM in the assay with A2780, 6.8 µM in the assay with HT-29 and 11.1 µM with A-375.

With `C=C(C)[C@@H]1CC[C@]2(C)CC[C@]3(C)[C@H](CC[C@@H]4[C@@]5(C)CC[C@@H](O)[C@](C)(C(=O)OCCBr)[C@@H]5CC[C@]43C)[C@@H]12`, the IC50 in the assay on FaDu is 26.4 µM; in the assay on A2780, 29 µM; in the assay on HT-29, 23 µM; in the assay with A-375 it was 17.4 µM.

Turning to `C/C(=C\CC/C(C)=C/CC[C@@H]1[C@@]2(C)CCC(=O)C(C)(C)[C@@H]2CC[C@@]1(C)O)CC/C=C(\C)C(=O)OCCBr`, the IC50 in the assay with FaDu, in the assay on A2780, with HT-29 and with A-375 was above 30 µM in each case.

Consider `C/C(=C\CC/C(C)=C/CC[C@@H]1[C@@]2(C)CCC(=O)C(C)(C)[C@@H]2CC[C@@]1(C)O)CC/C=C(\C)C(=O)OCCOC(=O)/C(C)=C/CC/C(C)=C/CC/C(C)=C/CC[C@@H]1[C@@]2(C)CCC(=O)C(C)(C)[C@@H]2CC[C@@]1(C)O`, for which the IC50 with FaDu is above 30 µM; with A2780, above 30 µM; with HT-29, 14 µM; in the assay on A-375, 24.5 µM.
